From the NIST ThermoML archive (doi:10.1016/j.jct.2016.05.015)

Assay: xn = mol fraction of the nth substance listed
Conditions: 100 kPa, Liquid; for viscosity: Capillary tube (Ostwald / Ubbelohde) method; for speed of sound: Frequency=2 MHz, Linear variable-path acoustic interferometer; for mass density: Vibrating tube method

Nc1cccc(Cl)c1 [3-chlorobenzenamine] + Brc1ccccc1
Conditions | mass density [kg/m3] | speed of sound [m/s] | viscosity [mPa·s]
303.15 K, x1 = 0.0902 | 1457.14 | 1162.5 | 1.364
303.15 K, x1 = 0.1842 | 1431.71 | 1191.5 | 1.741
303.15 K, x1 = 0.2789 | 1406 | 1222.1 | 2.101
303.15 K, x1 = 0.3759 | 1379.47 | 1255.1 | 2.454
303.15 K, x1 = 0.4745 | 1352.34 | 1290.5 | 2.795
303.15 K, x1 = 0.5763 | 1324.09 | 1329.2 | 3.131
303.15 K, x1 = 0.6782 | 1295.62 | 1370.2 | 3.446
303.15 K, x1 = 0.7852 | 1265.62 | 1416 | 3.752
303.15 K, x1 = 0.8914 | 1235.79 | 1464.5 | 4.022
303.15 K, x1 = 1 | 1205.32 | 1517.5 | 4.255
308.15 K, x1 = 0.0902 | 1451.19 | 1148.3 | 1.307
308.15 K, x1 = 0.1842 | 1425.93 | 1177.1 | 1.65
308.15 K, x1 = 0.2789 | 1400.36 | 1207.4 | 1.976
308.15 K, x1 = 0.3759 | 1373.99 | 1240.2 | 2.291
308.15 K, x1 = 0.4745 | 1346.99 | 1275.4 | 2.593
308.15 K, x1 = 0.5763 | 1318.91 | 1313.8 | 2.888
308.15 K, x1 = 0.6782 | 1290.63 | 1354.7 | 3.166
308.15 K, x1 = 0.7852 | 1260.78 | 1400.3 | 3.427
308.15 K, x1 = 0.8914 | 1231.09 | 1448.6 | 3.657
308.15 K, x1 = 1 | 1200.75 | 1501.2 | 3.842
313.15 K, x1 = 0.0902 | 1444.19 | 1134.9 | 1.223
313.15 K, x1 = 0.1842 | 1419.21 | 1163 | 1.533
313.15 K, x1 = 0.2789 | 1393.88 | 1192.8 | 1.826
313.15 K, x1 = 0.3759 | 1367.75 | 1224.9 | 2.104
313.15 K, x1 = 0.4745 | 1340.99 | 1259.3 | 2.372
313.15 K, x1 = 0.5763 | 1313.18 | 1296.9 | 2.632
313.15 K, x1 = 0.6782 | 1285.16 | 1336.9 | 2.876
313.15 K, x1 = 0.7852 | 1255.6 | 1381.6 | 3.105
313.15 K, x1 = 0.8914 | 1226.16 | 1428.7 | 3.293
313.15 K, x1 = 1 | 1196.02 | 1480.3 | 3.43
318.15 K, x1 = 0.0902 | 1437.77 | 1124.6 | 1.155
318.15 K, x1 = 0.1842 | 1412.99 | 1152.3 | 1.437
318.15 K, x1 = 0.2789 | 1387.82 | 1181.7 | 1.692
318.15 K, x1 = 0.3759 | 1361.85 | 1213.3 | 1.934
318.15 K, x1 = 0.4745 | 1335.26 | 1247.3 | 2.165
318.15 K, x1 = 0.5763 | 1307.62 | 1284.5 | 2.388
318.15 K, x1 = 0.6782 | 1279.81 | 1324 | 2.595
318.15 K, x1 = 0.7852 | 1250.46 | 1368 | 2.786
318.15 K, x1 = 0.8914 | 1221.22 | 1414.5 | 2.934
318.15 K, x1 = 1 | 1191.25 | 1464.8 | 3.022

Nc1cccc(Cl)c1 [3-chlorobenzenamine] + O=[N+]([O-])c1ccccc1
Conditions | mass density [kg/m3] | speed of sound [m/s] | viscosity [mPa·s]
303.15 K, x1 = 0.0812 | 1194.97 | 1445 | 1.938
303.15 K, x1 = 0.1725 | 1196.57 | 1452.6 | 2.253
303.15 K, x1 = 0.2623 | 1198.01 | 1460 | 2.537
303.15 K, x1 = 0.3725 | 1199.59 | 1468.9 | 2.863
303.15 K, x1 = 0.4854 | 1201 | 1478 | 3.179
303.15 K, x1 = 0.5896 | 1202.12 | 1486.4 | 3.456
303.15 K, x1 = 0.6785 | 1202.96 | 1493.5 | 3.679
303.15 K, x1 = 0.7825 | 1203.81 | 1501.6 | 3.915
303.15 K, x1 = 0.8905 | 1204.59 | 1509.8 | 4.117
303.15 K, x1 = 1 | 1205.32 | 1517.5 | 4.255
308.15 K, x1 = 0.0812 | 1189.92 | 1427.2 | 1.787
308.15 K, x1 = 0.1725 | 1191.59 | 1435 | 2.079
308.15 K, x1 = 0.2623 | 1193.07 | 1442.5 | 2.34
308.15 K, x1 = 0.3725 | 1194.69 | 1451.6 | 2.637
308.15 K, x1 = 0.4854 | 1196.16 | 1460.9 | 2.922
308.15 K, x1 = 0.5896 | 1197.35 | 1469.4 | 3.168
308.15 K, x1 = 0.6785 | 1198.25 | 1476.7 | 3.362
308.15 K, x1 = 0.7825 | 1199.18 | 1485 | 3.565
308.15 K, x1 = 0.8905 | 1200.03 | 1493.4 | 3.734
308.15 K, x1 = 1 | 1200.75 | 1501.2 | 3.842
313.15 K, x1 = 0.0812 | 1185.37 | 1409.1 | 1.666
313.15 K, x1 = 0.1725 | 1187.04 | 1416.6 | 1.935
313.15 K, x1 = 0.2623 | 1188.49 | 1423.8 | 2.167
313.15 K, x1 = 0.3725 | 1190.08 | 1432.6 | 2.427
313.15 K, x1 = 0.4854 | 1191.52 | 1441.5 | 2.674
313.15 K, x1 = 0.5896 | 1192.7 | 1449.8 | 2.889
313.15 K, x1 = 0.6785 | 1193.61 | 1456.8 | 3.059
313.15 K, x1 = 0.7825 | 1194.55 | 1465 | 3.234
313.15 K, x1 = 0.8905 | 1195.37 | 1473 | 3.369
313.15 K, x1 = 1 | 1196.02 | 1480.3 | 3.43
318.15 K, x1 = 0.0812 | 1179.19 | 1392.1 | 1.542
318.15 K, x1 = 0.1725 | 1181 | 1399.7 | 1.787
318.15 K, x1 = 0.2623 | 1182.58 | 1407 | 1.992
318.15 K, x1 = 0.3725 | 1184.35 | 1415.8 | 2.218
318.15 K, x1 = 0.4854 | 1185.97 | 1424.9 | 2.43
318.15 K, x1 = 0.5896 | 1187.32 | 1433.4 | 2.615
318.15 K, x1 = 0.6785 | 1188.37 | 1440.7 | 2.755
318.15 K, x1 = 0.7825 | 1189.5 | 1449.1 | 2.902
318.15 K, x1 = 0.8905 | 1190.49 | 1457.3 | 3.004
318.15 K, x1 = 1 | 1191.25 | 1464.8 | 3.022

Nc1cccc(Cl)c1 [3-chlorobenzenamine] + Clc1ccccc1
Conditions | mass density [kg/m3] | speed of sound [m/s] | viscosity [mPa·s]
303.15 K, x1 = 0.0895 | 1106.11 | 1265.6 | 1.126
303.15 K, x1 = 0.1802 | 1116.69 | 1284.1 | 1.516
303.15 K, x1 = 0.2935 | 1129.74 | 1308.9 | 1.975
303.15 K, x1 = 0.3821 | 1139.77 | 1329.6 | 2.317
303.15 K, x1 = 0.4956 | 1152.34 | 1358.1 | 2.738
303.15 K, x1 = 0.5823 | 1161.75 | 1381.5 | 3.046
303.15 K, x1 = 0.6923 | 1173.48 | 1413.3 | 3.417
303.15 K, x1 = 0.8012 | 1184.88 | 1447.5 | 3.756
303.15 K, x1 = 0.8856 | 1193.58 | 1476 | 3.991
303.15 K, x1 = 1 | 1205.32 | 1517.5 | 4.255
308.15 K, x1 = 0.0895 | 1100.43 | 1243.5 | 1.059
308.15 K, x1 = 0.1802 | 1111.15 | 1262.3 | 1.418
308.15 K, x1 = 0.2935 | 1124.32 | 1287.4 | 1.835
308.15 K, x1 = 0.3821 | 1134.43 | 1308.4 | 2.145
308.15 K, x1 = 0.4956 | 1147.15 | 1337.4 | 2.522
308.15 K, x1 = 0.5823 | 1156.68 | 1361.3 | 2.797
308.15 K, x1 = 0.6923 | 1168.55 | 1393.9 | 3.126
308.15 K, x1 = 0.8012 | 1180.09 | 1429 | 3.421
308.15 K, x1 = 0.8856 | 1188.91 | 1458.3 | 3.623
308.15 K, x1 = 1 | 1200.75 | 1501.2 | 3.842
313.15 K, x1 = 0.0895 | 1095.5 | 1223.6 | 0.9961
313.15 K, x1 = 0.1802 | 1106.27 | 1242.2 | 1.322
313.15 K, x1 = 0.2935 | 1119.45 | 1267.1 | 1.697
313.15 K, x1 = 0.3821 | 1129.56 | 1288 | 1.972
313.15 K, x1 = 0.4956 | 1142.29 | 1316.8 | 2.306
313.15 K, x1 = 0.5823 | 1151.83 | 1340.5 | 2.548
313.15 K, x1 = 0.6923 | 1163.77 | 1373.1 | 2.839
313.15 K, x1 = 0.8012 | 1175.35 | 1408.2 | 3.097
313.15 K, x1 = 0.8856 | 1184.21 | 1437.5 | 3.264
313.15 K, x1 = 1 | 1196.02 | 1480.3 | 3.43
318.15 K, x1 = 0.0895 | 1090.31 | 1198.7 | 0.9397
318.15 K, x1 = 0.1802 | 1101.12 | 1217.7 | 1.238
318.15 K, x1 = 0.2935 | 1114.34 | 1243.1 | 1.57
318.15 K, x1 = 0.3821 | 1124.49 | 1264.5 | 1.808
318.15 K, x1 = 0.4956 | 1137.26 | 1294.2 | 2.098
318.15 K, x1 = 0.5823 | 1146.85 | 1318.8 | 2.308
318.15 K, x1 = 0.6923 | 1158.87 | 1352.6 | 2.557
318.15 K, x1 = 0.8012 | 1170.53 | 1389.2 | 2.773
318.15 K, x1 = 0.8856 | 1179.42 | 1419.9 | 2.908
318.15 K, x1 = 1 | 1191.25 | 1464.8 | 3.022
